Data taken from publication PMC10424242, “Macrocyclic Peptidomimetic Plasmepsin X Inhibitors with Potent In Vitro and In Vivo Antimalarial Activity” (Journal of Medicinal Chemistry, 2023).
Read-outs that look alike come from different tables or passages of the source.

What was measured:
cathepsin D (CatD) = cathepsin D (CatD) (Homo sapiens, UniProt P07339); assay: FRET-based CatD inhibition assay (selectivity counter screen); assay type: biochemical
Protocol: (§1) A fluorescence resonance energy transfer (FRET)-based assay was performed to assess the ability of the compounds to inhibit PMIV, CatD, and BACE1. Serial dilutions of test compounds were dispensed in a white 96-well plate. […] The mixture was incubated for 20 min at 37 °C. […] IC50 values were calculated with GraphPad Prism 8.0 using the nonlinear regression, variable slope (four parameters). Compounds were tested in triplicate.

[1] = Plasma protein binding (rapid equilibrium dialysis); assay type: in vitro ADME; conditions: pH 7.4, mouse plasma, 2 h at 37 °C
Protocol: Plasma protein binding was performed with rapid equilibrium dialysis (RED) device inserts containing a dialysis membrane with a molecular weight cut-off of 8000 Daltons. Inserts were placed in the single-use RED plate without prior preparation.
The test compound at a concentration of 5 μM was added to mouse plasma and dialyzed against phosphate-buffered saline (PBS, pH 7.4) for 2 h at 37 °C. Propranolol hydrochloride was used as a positive control (high PPB), and fluconazole was used as negative control (low PPB). After dialysis, the drug concentration in the buffer and plasma compartments was quantified by liquid chromatography and tandem mass spectrometry (LC-MS/MS) analysis.

PMIV = PMIV (Plasmodium falciparum, UniProt Q8IM16); assay: FRET-based PMIV inhibition assay; assay type: biochemical, P. falciparum
PMIV, sequence (Q8IM16 122-449): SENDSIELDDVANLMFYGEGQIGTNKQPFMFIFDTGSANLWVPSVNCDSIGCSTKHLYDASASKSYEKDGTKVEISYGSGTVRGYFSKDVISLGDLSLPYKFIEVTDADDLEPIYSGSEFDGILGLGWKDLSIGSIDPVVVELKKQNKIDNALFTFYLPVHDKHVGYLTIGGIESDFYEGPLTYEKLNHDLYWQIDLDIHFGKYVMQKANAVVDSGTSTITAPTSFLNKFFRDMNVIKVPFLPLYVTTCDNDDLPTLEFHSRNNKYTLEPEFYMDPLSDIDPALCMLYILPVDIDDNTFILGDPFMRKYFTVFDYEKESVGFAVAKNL
Protocol: as §1

BACE1 = BACE1 (Homo sapiens, UniProt P56817); assay: FRET-based BACE1 inhibition assay (selectivity counter screen); assay type: biochemical
BACE1, sequence (P56817 46-501): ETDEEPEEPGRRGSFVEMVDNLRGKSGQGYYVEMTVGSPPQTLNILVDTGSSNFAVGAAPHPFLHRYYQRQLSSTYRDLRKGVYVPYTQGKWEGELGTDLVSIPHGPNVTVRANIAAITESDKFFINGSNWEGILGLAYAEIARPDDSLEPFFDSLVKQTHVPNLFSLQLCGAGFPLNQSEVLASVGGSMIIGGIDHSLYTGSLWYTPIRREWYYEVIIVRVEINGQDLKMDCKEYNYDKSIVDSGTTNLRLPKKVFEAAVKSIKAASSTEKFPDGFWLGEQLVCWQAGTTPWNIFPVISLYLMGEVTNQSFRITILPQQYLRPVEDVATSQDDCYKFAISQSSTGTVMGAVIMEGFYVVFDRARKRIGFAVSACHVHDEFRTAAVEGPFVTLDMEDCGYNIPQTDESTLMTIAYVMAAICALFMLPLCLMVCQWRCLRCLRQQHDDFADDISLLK
Protocol: as §1

[2] = molecular target: recombinant P. falciparum PMX (Plasmodium falciparum, UniProt Q8IAS0); assay: Recombinant P. falciparum PMX inhibition assay (fluorogenic substrate Rh2N); assay type: biochemical
recombinant P. falciparum PMX, sequence (Q8IAS0 222-573): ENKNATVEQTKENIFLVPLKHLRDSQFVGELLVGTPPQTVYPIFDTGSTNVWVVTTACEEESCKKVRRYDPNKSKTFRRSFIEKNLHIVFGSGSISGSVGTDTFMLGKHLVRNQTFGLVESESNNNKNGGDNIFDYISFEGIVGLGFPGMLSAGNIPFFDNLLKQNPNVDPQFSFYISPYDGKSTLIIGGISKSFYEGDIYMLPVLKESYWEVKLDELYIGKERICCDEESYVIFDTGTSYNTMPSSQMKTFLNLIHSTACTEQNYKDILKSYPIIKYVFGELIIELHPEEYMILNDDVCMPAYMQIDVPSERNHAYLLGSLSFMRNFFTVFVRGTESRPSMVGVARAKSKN
Protocol: The fluorescence of this peptide is quenched by the spatial proximity of the DABCYL/EDANS groups in the uncleaved peptide and is increased upon cleavage at the internal F–I bond. […] Control wells contained no inhibitor, and the plate was blanked against the substrate only in DB. […] All experiments were performed in duplicate.

[3] = system: P. falciparum 3D7 parasites; assay: Microscopy of synchronized P. falciparum cultures treated from ring stage (development and egress); assay type: cell-based; conditions: 20 nM
Protocol: Asexual blood-stage forms of P. falciparum strains 3D7 and Dd2 were maintained at 37 °C in an atmosphere of 1% O2, 5% CO2, and 94% N2 in human RBCs in RPMI 1640 medium containing AlbuMAX II (Thermo Fisher Scientific) and supplemented with 2 mM L-glutamine. The synchronization of parasite cultures was as described previously.[39] Briefly, this involved isolating mature schizont forms by centrifugation over cushions of 70% (v/v) isotonic Percoll (GE Healthcare, Life Sciences) and then allowing the parasites to undergo rupture in the presence of fresh RBCs for 2 h under gentle shaking conditions (100 rpm). Residual schizonts were then removed through a second Percoll separation, followed by treatment with 5% (w/v) sorbitol to finally obtain a highly synchronized preparation of newly invaded ring-stage parasites.
Growth stage progression and parasite morphology were also monitored by microscopic examination at selected time points using Giemsa-stained thin blood films.

[4] = Liver microsomal metabolic stability; assay type: in vitro ADME, mouse; conditions: pooled liver microsomes, pH 7.4, mouse liver microsomes, 5 μM; for microsomal CLint at 1 h, 5 μM: read-out: microsomal stability CL(int)
Protocol: Microsomal stability assays are performed as described elsewhere.[41] Test compounds and pooled mouse liver microsomes are incubated in potassium phosphate buffer in the presence of the cofactor NADPH at 37 °C. Reaction mixtures (700 μL) contain a final concentration of 5 μM test compound, 0.05% DMSO, 0.5 mg/mL microsomes, and ∼0.7–0.9 mM NADPH in 100 mM potassium phosphate buffer at pH 7.4. Reactions are terminated by the addition of 100 μL of the reaction mixture to 900 μL of acetonitrile after 0, 5, 15, 30, 45, and 60 min of incubation. Samples were centrifuged, and the resultant supernatant was analyzed by ultra-performance liquid chromatography–tandem mass spectrometry (UPLC-MS/MS). The amount of remaining compound is calculated and compared to the initial amount of test compound (zero time point). Verapamil is used as a positive control, and samples prepared without cofactor NADPH are used as a negative control (0 and 60 min). The in vitro metabolic stability parameters (half-life value (t1/2) and intrinsic clearance value (Clint)) are calculated from the slope of the Ln of concentration remaining vs the time curve.

[5] = system: maturation of RAP1, substrate of PMIX; assay: Western blot of RAP1 maturation in treated schizonts; assay type: cell-based, P. falciparum; conditions: 20 nM, 44 h
Source text: Figure 4 Macrocycle PMX inhibitors have no effect on intraerythrocytic parasite maturation but prevent egress and maturation of SUB1. […] Scale bar, 20 μm. (B) Simplified schematic of proteolytic maturation of the egress effector SUB1. Conversion of the precursor form to p54 is through autocatalytic removal[32] of the prodomain region (PD), whereas conversion of p54 to p47 is mediated by PMX.[15],[16],[33] (C) Left, Western blot analysis of P. falciparum 3D7 schizonts allowed to mature in the presence of the indicated macrocycle compounds (20 nM), showing defective SUB1 maturation in parasites treated with the indicated macrocycle compounds. Right, Western blot of the same extracts probed with a monoclonal antibody (mAb) specific to the rhoptry protein RAP1, which is a substrate for cleavage by the related P. falciparum protease PMIX. The compounds had no discernible effect on the maturation of RAP1. The results shown are typical of 3 independent experiments.
(§2) Synchronous parasite cultures were cultured from ring to schizont stage (∼44 h) in the presence of DMSO alone (0.04% v/v; control) or macrocycle compounds (20 nM final concentration). Schizonts were isolated by Percoll enrichment (still in the presence of the test compound), then either immediately frozen or further incubated in the absence of the drug but in the presence of C2 (1 μM) for 1 h at 37°C in the absence of added RBCs or for 3.5 h in the presence of added RBCs. The schizonts without added RBCs were then frozen too, and all schizont samples were then thawed into CHAPS–urea extraction buffer, subjected to sodium dodecyl sulfate-polyacrylamide gel electrophoresis (SDS-PAGE), and analyzed by Western blot, probing with antibodies against SUB1 or RAP1. For schizonts cultured in the presence of added RBCs, ring formation was assessed in two ways: cultures were examined microscopically by Giemsa stain of thin films and were also fixed with glutaraldehyde and processed for quantification of ring formation by flow cytometry as described above.

[6] = system: SUB1 p54 to p47 conversion (PMX activity); assay: Washout assay, SUB1 maturation by Western blot; assay type: cell-based, P. falciparum; conditions: 20 nM ∼44 h, C2 1 μM for 1 h
Protocol: (§3) The schizont cultures lacking added RBCs were supplemented with compound C2, which blocks the discharge of exonemes, the parasite secretory organelles in which PMX and SUB1 are stored before egress. The schizonts without added RBCs were sampled for Western blot analysis, while the schizont cultures containing RBCs were examined by microscopy and flow cytometry after a further 4 h in culture to quantify schizont rupture and new ring formation.
as §2

[7] = system: maturation of the PMX substrate SUB1 (p54 to p47); assay: Western blot of SUB1 maturation in treated schizonts; assay type: cell-based, P. falciparum; conditions: 20 nM, 44 h
Protocol: This phenotype is characteristic of the inhibition of PMX.
as §2

P. falciparum schizonts = assay: Washout assay, schizont rupture and new ring formation; assay type: cell-based; conditions: 20 nM ∼44 h, […] with added RBCs
Protocol: as §3, §2

[8] = recombinant PMX, read-out: PMX, nM (IC50)

cathepsin D (CatD), sequence (P07339 65-412): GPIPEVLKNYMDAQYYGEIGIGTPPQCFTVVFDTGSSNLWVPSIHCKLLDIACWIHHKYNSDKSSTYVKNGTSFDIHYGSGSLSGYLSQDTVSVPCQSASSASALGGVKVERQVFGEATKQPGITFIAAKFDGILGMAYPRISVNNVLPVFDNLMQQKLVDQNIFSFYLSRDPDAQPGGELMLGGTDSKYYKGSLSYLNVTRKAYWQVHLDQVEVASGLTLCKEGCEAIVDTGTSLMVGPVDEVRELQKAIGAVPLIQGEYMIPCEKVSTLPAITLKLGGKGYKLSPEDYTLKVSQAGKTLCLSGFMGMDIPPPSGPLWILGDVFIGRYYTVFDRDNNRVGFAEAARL

Compound | IC50 (cathepsin D (CatD)) [nM] | fraction unbound at 2 h, 5 µM [1] | IC50 (PMIV; read-out: PMIV, nM (IC50)) [nM] | IC50 (BACE1) [nM] | IC50 [2, 8] [nM] | intraerythrocytic development of ring-stage parasites to schizont stage ([3]; 44 h) | schizont rupture (egress) and appearance of new rings ([3]; 44 h and extended incubation) | half-life at 1 h, 5 μM [4] [min] | microsomal CLint at 1 h, 5 μM [4] [µL/min/mg] | maturation of RAP (PMIX substrate) [5] | SUB1 p54 to p47 conversion after washout [6] | maturation of SUB1 (p54 to p47) [7] | new ring formation after washout (P. falciparum schizonts) | IC50 (PMIV; Table 3, read-out: PMIV, nM (as listed in Table 3)) [nM] | IC50 ([2]; Table 3, read-out: PMX, nM (as listed in Table 3)) [nM]
CCCN1CCCCOc2cccc(c2)C[C@@H]([C@H](O)CNC(C)(C)c2cccc(OC)c2)NC(=O)c2cccc(c2)C1=O [7a, (S)-4-((R)-1-Hydroxy-2-((2-(3-methoxyphenyl)propan-2-yl)amino)ethyl)-12-propyl-7-oxa-3,12-diaza-1,6(1,3)-dibenzenacyclotridecaphane-2,13-dione] | 270 ± 20 | 0.029 | 60 ± 3 | 380 ± 20 | 4.1 ± 0.3 | Development of ring-stage parasites to the multinucleated schizont stage occurred similarly in all cultures | schizont rupture and appearance of new rings did not occur | 8.67 | 160 | do not affect PMIX activity at these concentrations | efficient conversion of the accumulated SUB1 p54 intermediate to the p47 form | clear defect in maturation of the PMX substrate SUB1 | allowed an efficient generation of new rings | – | –
CCCN1CCCCc2cccc(c2)C[C@@H]([C@H](O)CNC(C)(C)c2cccc(OC)c2)NC(=O)c2cccc(c2)C1=O [7j, (S)-4-((R)-1-Hydroxy-2-((2-(3-methoxyphenyl)propan-2-yl)amino)ethyl)-11-propyl-3,11-diaza-1,6(1,3)-dibenzenacyclododecaphane-2,12-dione] | 1370 ± 70 | 0.0067 | 74 ± 4 | 3020 ± 150 | 3.8 ± 0.69 | – | – | 14.4 | 96.4 | do not affect PMIX activity at these concentrations | efficient conversion of the accumulated SUB1 p54 intermediate to the p47 form | clear defect in maturation of the PMX substrate SUB1 | allowed an efficient generation of new rings | 74 ± 4 | 3.8 ± 0.69
